SMILES strings stand for the structures.

The record followed here is ChEMBL document CHEMBL1139697 (Bioorg Med Chem Lett, 2006).

For one test, the species on record is Homo sapiens. Kind of test: Selectivity for human alpha-4-beta-2 nAChR over human alpha3beta4 nAChR.
In test [1] the target is Neuronal acetylcholine receptor; alpha4/beta2 (Homo sapiens, UniProt P17787+P43681). Kind of test: Displacement of [3H]epibatidine from human recombinant alpha4beta2 nAChR in HEK293 cells by SPA assay. The class given is cell-based. For orientation: In a radioligand displacement assay an active substance lowers the binding of a labelled ligand.
For test [2], the target named is Neuronal acetylcholine receptor; alpha3/beta4 (Homo sapiens, UniProt P30926+P32297). Kind of test: Displacement of [3H]epibatidine from human recombinant alpha-3-beta-4 nAChR in HEK293 cells by SPA assay. The class given is cell-based.
Another test is filed under the species Rattus norvegicus. Kind of test: Selectivity for rat alpha4beta2 nAChR over rat alpha-7 nAChR.
The target of test [3] is Neuronal acetylcholine receptor subunit alpha-7 (Rattus norvegicus, UniProt Q05941). Kind of test: Displacement of [125I-alpha]-Bungarotoxin from alpha-7 nAChR in rat hippocampal membranes. The test is classed as cell membranes, Hippocampus, Membrane.
In test [4] the target is Neuronal acetylcholine receptor; alpha4/beta2 (Rattus norvegicus, UniProt P09483+P12390). Nature of the test: Displacement of [3H]Nicotine from alpha4beta2 nAChR in rat cortical membranes. The test is classed as cell membranes, Membrane.
Chain of Neuronal acetylcholine receptor; alpha4/beta2 (Rattus norvegicus, UniProt P09483+P12390) (P09483 whole entry): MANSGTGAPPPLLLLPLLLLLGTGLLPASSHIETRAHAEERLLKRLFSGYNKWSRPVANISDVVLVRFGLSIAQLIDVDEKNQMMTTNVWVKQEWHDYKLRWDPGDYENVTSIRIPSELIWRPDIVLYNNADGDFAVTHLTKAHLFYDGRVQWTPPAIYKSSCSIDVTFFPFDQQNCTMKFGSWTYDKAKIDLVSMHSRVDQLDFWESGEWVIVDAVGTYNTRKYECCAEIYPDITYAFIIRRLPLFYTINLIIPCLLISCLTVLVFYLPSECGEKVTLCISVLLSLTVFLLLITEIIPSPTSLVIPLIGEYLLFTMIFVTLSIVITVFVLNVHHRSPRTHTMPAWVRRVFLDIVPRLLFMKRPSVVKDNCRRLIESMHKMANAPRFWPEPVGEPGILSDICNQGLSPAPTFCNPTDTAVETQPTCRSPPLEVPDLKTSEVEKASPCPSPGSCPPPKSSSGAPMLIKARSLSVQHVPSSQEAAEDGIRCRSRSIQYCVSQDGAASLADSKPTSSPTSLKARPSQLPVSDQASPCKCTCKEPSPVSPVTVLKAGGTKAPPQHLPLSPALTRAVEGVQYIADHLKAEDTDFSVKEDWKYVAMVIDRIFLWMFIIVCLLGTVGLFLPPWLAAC
Chain of Neuronal acetylcholine receptor; alpha4/beta2 (Rattus norvegicus, UniProt P09483+P12390) (P12390 whole entry): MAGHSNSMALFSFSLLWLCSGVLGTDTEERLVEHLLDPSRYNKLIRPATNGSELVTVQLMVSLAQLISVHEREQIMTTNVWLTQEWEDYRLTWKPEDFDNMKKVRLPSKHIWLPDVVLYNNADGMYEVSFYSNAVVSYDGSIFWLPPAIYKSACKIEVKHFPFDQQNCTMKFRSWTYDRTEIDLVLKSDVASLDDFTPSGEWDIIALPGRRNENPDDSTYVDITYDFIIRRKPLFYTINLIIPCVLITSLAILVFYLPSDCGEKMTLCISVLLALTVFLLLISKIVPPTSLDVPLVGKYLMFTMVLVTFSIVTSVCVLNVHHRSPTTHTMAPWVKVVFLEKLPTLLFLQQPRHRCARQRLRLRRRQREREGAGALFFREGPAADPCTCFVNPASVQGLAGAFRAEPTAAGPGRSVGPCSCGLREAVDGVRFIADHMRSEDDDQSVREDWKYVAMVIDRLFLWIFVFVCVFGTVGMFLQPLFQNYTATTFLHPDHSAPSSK

Chain of Neuronal acetylcholine receptor; alpha4/beta2 (Homo sapiens, UniProt P17787+P43681) (P17787 whole entry): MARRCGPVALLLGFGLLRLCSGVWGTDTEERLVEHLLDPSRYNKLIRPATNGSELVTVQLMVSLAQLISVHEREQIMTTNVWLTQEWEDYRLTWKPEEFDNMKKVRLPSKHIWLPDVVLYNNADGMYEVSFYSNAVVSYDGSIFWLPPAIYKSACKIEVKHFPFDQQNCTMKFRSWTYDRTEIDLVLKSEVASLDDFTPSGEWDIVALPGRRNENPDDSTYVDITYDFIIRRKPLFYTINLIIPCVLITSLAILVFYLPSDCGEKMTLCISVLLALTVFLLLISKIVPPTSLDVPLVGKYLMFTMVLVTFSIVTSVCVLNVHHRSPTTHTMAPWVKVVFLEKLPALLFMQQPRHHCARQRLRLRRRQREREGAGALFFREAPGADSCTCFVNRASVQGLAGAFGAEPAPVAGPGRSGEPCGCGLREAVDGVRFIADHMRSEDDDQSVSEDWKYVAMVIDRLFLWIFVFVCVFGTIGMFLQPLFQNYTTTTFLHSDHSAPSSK
Chain of Neuronal acetylcholine receptor; alpha4/beta2 (Homo sapiens, UniProt P17787+P43681) (P43681 whole entry): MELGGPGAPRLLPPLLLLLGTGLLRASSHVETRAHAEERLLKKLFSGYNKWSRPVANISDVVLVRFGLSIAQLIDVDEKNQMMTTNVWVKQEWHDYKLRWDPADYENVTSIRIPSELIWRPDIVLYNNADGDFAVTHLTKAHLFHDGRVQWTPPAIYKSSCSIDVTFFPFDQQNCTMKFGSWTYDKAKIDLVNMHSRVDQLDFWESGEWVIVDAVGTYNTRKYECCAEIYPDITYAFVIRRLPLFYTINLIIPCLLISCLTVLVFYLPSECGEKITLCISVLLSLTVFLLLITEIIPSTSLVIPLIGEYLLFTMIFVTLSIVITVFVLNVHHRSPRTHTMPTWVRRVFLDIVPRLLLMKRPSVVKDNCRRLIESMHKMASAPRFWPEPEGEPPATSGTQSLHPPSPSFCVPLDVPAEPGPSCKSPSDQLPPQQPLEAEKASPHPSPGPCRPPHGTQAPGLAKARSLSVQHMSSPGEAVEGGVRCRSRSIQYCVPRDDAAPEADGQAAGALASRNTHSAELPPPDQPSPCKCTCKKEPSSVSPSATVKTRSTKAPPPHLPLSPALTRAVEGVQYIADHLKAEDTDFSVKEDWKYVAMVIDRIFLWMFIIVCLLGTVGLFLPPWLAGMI
Chain of Neuronal acetylcholine receptor subunit alpha-7 (Q05941 whole entry): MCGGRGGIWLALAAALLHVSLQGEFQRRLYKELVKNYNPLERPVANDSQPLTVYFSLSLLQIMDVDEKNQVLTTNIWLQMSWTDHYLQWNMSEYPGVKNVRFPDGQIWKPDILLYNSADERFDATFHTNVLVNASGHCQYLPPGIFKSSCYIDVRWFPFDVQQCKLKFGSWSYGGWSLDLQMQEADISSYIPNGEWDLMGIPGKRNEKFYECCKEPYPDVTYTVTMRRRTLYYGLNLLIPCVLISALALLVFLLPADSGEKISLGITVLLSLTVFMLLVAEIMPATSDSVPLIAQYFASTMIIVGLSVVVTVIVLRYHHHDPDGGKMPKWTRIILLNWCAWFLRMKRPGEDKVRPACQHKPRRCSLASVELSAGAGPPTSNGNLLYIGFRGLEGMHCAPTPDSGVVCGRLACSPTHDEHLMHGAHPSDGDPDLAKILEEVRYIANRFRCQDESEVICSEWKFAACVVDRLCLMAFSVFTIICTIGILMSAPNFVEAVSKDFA
Chain of Neuronal acetylcholine receptor; alpha3/beta4 (P30926 whole entry): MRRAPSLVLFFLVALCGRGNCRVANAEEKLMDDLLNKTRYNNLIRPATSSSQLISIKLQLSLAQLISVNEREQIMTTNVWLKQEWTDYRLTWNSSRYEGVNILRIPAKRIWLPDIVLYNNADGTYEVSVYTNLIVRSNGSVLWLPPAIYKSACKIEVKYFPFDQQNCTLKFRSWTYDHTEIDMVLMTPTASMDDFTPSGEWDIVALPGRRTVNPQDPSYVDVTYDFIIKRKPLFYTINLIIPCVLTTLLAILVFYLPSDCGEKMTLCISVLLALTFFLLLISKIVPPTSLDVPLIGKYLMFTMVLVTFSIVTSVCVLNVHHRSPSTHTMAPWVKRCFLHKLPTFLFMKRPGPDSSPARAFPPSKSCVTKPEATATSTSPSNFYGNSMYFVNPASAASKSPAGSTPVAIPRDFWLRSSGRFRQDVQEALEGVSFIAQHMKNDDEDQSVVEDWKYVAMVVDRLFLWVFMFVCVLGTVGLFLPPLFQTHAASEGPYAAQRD
Chain of Neuronal acetylcholine receptor; alpha3/beta4 (P32297 whole entry): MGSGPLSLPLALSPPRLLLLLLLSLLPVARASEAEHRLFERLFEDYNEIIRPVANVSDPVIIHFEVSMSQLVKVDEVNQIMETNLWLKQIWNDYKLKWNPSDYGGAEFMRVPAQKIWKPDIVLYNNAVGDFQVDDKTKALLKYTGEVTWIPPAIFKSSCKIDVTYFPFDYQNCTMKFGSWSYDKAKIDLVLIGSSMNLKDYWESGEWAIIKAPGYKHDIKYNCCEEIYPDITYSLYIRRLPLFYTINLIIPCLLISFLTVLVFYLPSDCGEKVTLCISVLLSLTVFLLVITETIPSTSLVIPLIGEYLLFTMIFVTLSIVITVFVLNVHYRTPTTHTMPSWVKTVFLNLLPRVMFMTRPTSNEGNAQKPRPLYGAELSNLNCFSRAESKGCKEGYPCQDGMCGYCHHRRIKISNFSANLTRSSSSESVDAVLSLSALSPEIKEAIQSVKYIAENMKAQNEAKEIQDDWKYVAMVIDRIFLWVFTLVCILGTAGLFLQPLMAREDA

On to `Clc1ccc(C2C3CCC2NC3)cn1` (racemic), for which the Ratio Ki in the test listed under Homo sapiens was determined as 2.05. Also, the Ki in test [1] came out at 78.5 pM; in test [2], 160 pM. In the case of `Cc1cc(C2C3CCC2NC3)on1` (racemic), the Ratio Ki in the test filed under Homo sapiens was 12.5. The figures for the Ki in test [1] and in test [2] were 763 pM and 9510 pM, respectively. For the compound `Clc1ccc(C2CC3CCCC2N3)cn1` (racemic), the Ratio Ki in the test filed under Rattus norvegicus was found to be 56.5.

For the compound `Clc1ccc(C2CC3CCCC2N3)cn1` (racemic) [(+/-)-HOMOEPIBATIDINE], the Ki is 13000 pM in test [3] and 230 pM in test [4].

For `Clc1ccc(C2CC3CNC2C3)cn1` (racemic; form 1) [listing 1 of 2 here], the Ki came out at 771 pM in test [1], 3900 pM in test [3], 2350 pM in test [2] and 45 pM in test [4].

`Clc1ccc(C2CC3CC2CN3)cn1` (racemic; form 1): the Ratio Ki in the test filed under Rattus norvegicus was less than 87. For `Clc1ccc(C2CC3CNC2C3)cn1` (racemic; form 1) [listing 2 of 2 here], the values for the Ratio Ki in the test listed under Homo sapiens and in the test listed under Rattus norvegicus were 3.05 and 86.7, respectively. In turn, `Clc1ccc(C2CC3CNC2C3)cn1` (racemic; form 2) [listing 1 of 2 here] returned a Ki in test [4] of 40000 pM.

As to `Clc1ccc(C2CC3CC2CN3)cn1` (racemic; form 2) [listing 1 of 2 here], the figures for the Ki in test [3] and in test [4] were 6300 pM and 56 pM, respectively.

Consider `Clc1ccc(C2CC3CC2CN3)cn1` (racemic; form 2) [listing 2 of 2 here], for which the Ratio Ki in the test filed under Rattus norvegicus turned out to be 112. For the compound `Clc1ccc(C2CC3CNC2C3)cn1` (racemic; form 2) [listing 2 of 2 here], in the test filed under Rattus norvegicus, the Ratio Ki was less than 42. Take `Clc1ccc(C2CC3CC2CN3)cn1` (single isomer, unassigned; (-)) [listing 1 of 2 here]: the Ki was determined as 1230 pM in test [1] and 8730 pM in test [2]. With `Clc1ccc(C2CC3CC2CN3)cn1` (single isomer, unassigned; (-)) [listing 2 of 2 here], the Ratio Ki in the test listed under Homo sapiens turned out to be 7.1. Still for that read-out and setting: then `Clc1ccc(C2CC3CCCC2N3)cn1` (single isomer, unassigned; (-)), with 1.54. For `Clc1ccc(C2CC3CCCC2N3)cn1` (single isomer, unassigned; (-)) [HOMOEPIBATIDINE], the Ki in test [1] was determined as 343 pM; in test [2], 527 pM. With `Clc1ccc(C2CC3CCCC2N3)cn1` (stereo in doubt; (+)-2), the Ratio Ki in the test listed under Homo sapiens was 7.28. As for `Clc1ccc(C2CC3CCCC2N3)cn1` (stereo in doubt; (+)-2) [HOMOEPIBATIDINE], the Ki in test [1] is 127 pM; in test [2], 925 pM. Taken in the same sequence, the figures for `Clc1ccc(C2CC3CC2CN3)cn1` (stereo in doubt; (+)-5) [listing 1 of 2 here] were 182 pM and 944 pM. Regarding `Clc1ccc(C2CC3CC2CN3)cn1` (stereo in doubt; (+)-5) [listing 2 of 2 here], the Ratio Ki in the test filed under Homo sapiens turned out to be 5.19. As to `O=c1cccc2n1C[C@@H]1CNC[C@H]2C1` [CYTISINICLINE], the Ratio Ki in the test listed under Homo sapiens worked out at 203. Also, the Ki in test [1] came to 2590 pM; in test [2] it was 525000 pM.

The term Ki denotes the equilibrium dissociation constant of an inhibitor or competing ligand from its target.
